The subject of the assay is Cryptococcus neoformans var. grubii H99. Briefly: Fungicidal efficacy (CFU survival rate) of AbA, AmB and their combination, with or without IPC. The assay is classed as cell-based. Conditions: AmB 1 μg/mL, 1 hour in YPD medium; for the combination AbA 1 μg/mL added 6 hours before AmB. The procedure: In this example, the antifungal activity of AbA was evaluated. Specifically, the inventors tested the activity of AbA alone and in combination with AmB against Cryptococcus. In addition, the inventors also tested the effect of purified IPC on the antifungal activity of AbA alone and in combination with AmB against Cryptococcus. The specific experimental procedures are as follows.
In this example, a total of 5 groups were set up, including AbA alone, AmB alone, AbA combined with AmB, AbA combined with AmB in the presence of 1 mg/mL IPC, and AbA combined with AmB in the presence of 10 mg/mL IPC. The fungicidal efficacy of the above 5 groups of treatments against Cryptococcus neoformans var. grubii H99 (a laboratory strain) was evaluated. The survival rate of Cryptococcus after 1 hour of treatment with AmB in YPD medium was determined by calculating the CFU ratio between AmB-treated and untreated samples. AbA and IPC were added 6 hours prior to AmB treatment as a pre-treatment. AbA was purchased from Biorigin, AmB from Inalco, and IPC was extracted from an ERG6 gene knockout H99 mutant strain defective in ergosterol biosynthesis.

As for `C[C@@H]1[C@H](O)[C@@H](C)/C=C/C=C/C=C/C=C/C=C/C=C/C=C/[C@H](O[C@@H]2O[C@H](C)[C@@H](O)[C@H](N)[C@@H]2O)C[C@@H]2O[C@](O)(C[C@@H](O)C[C@@H](O)[C@H](O)CC[C@@H](O)C[C@@H](O)CC(=O)O[C@H]1C)C[C@H](O)[C@H]2C(=O)O` [AmB, amphotericin B], the “survival rate of Cryptococcus neoformans (CFU ratio between AmB-treated and untreated samples)” value is recorded as 39%.

These data come from patent US20260061026A1, “COMBINATION OF INOSITOL PHOSPHORYLCERAMIDE SYNTHETASE INHIBITOR AND AMPHOTERICIN B, AND USE THEREOF” (priority 2023, published 2026).
